The test deals with T1, human recombinant IL-17A (Homo sapiens, UniProt Q16552).
T1 construct: purchased R&D Systems 7955-IL/CF
T1 sequence (Q16552 24-155): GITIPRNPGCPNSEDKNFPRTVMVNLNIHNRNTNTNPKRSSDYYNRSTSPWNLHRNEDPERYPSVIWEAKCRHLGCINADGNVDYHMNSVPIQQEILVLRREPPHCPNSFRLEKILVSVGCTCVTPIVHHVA
The test can be described thus: IL-17A AlphaLISA assay (block binding of IL-17A to its receptor IL-17RA). To be noted: read-out: AlphaLISA pIC50 (converted). The method, boiled down: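 Compounds pre-incubated 24 h at RT (30 min where flagged) with human IL-17A (7.5 nM stock) before IL-17RA/Fc (5 nM stock), 90 min. Read by AlphaLISA via anti-Fc acceptor and biotin anti-IL-17A/streptavidin donor beads, 680/615 nm. 4-parameter fit; DMSO and 6 μM reference inhibitor as controls; pIC50.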
(Bead proximity is the source of the signal in Alpha formats.)

The mark [1] stands for this setting: compounds pre-incubated with the IL-17A for 30 min (indicated by * in Table A).
The mark [2] stands for this setting: compounds pre-incubated with the IL-17A for 24 h at room temperature.

Each structure is given as a SMILES string. Like-named read-outs stand apart in the source and are kept apart here.

Here are results for 20 compounds from patent US20230227427A1, “IL-17A MODULATORS” (SANOFI, priority 2010, published 2023).

Take `Cc1nn(C)c(C)c1-c1ccc(NC(=O)[C@@H](NC(=O)c2ccnn2C)C2CCCCCC2)nc1` [Example 216, (S)—N-(1-cycloheptyl-2-oxo-2-((5-(1,3,5-trimethyl-1H-pyrazol-4-yl)pyridin-2-yl)amino)ethyl)-1-methyl-1H-pyrazole-5-carboxamide]: the IC50 under setting [1] is 501 nM.

In the case of `Cc1nccc(-c2ccc(NC(=O)[C@@H](NC(=O)c3ccnn3C)C(c3ccccc3)c3ccccc3)cc2F)c1C` [Example 57, (S)—N-(1-((4-(2,3-dimethylpyridin-4-yl)-3-fluorophenyl)amino)-1-oxo-3,3-diphenylpropan-2-yl)-1-methyl-1H-pyrazole-5-carboxamide], under setting [2], the IC50 was 126 nM.

Regarding `Cc1c(-c2ccc(NC(=O)[C@@H](NC(=O)c3ccnn3C)C(c3ccccc3)c3ccccc3)cc2F)ccc(=O)n1C` [Example 16, (S)—N-(1-((4-(1,2-dimethyl-6-oxo-1,6-dihydropyridin-3-yl)-3-fluorophenyl)amino)-1-oxo-3,3-diphenylpropan-2-yl)-1-methyl-1H-pyrazole-5-carboxamide], the IC50 under setting [2] was 15.8 nM.

`CCc1nocc1C(=O)N[C@H](C(=O)Nc1ccc(-c2c(C)noc2C)nc1)[C@H]1CC[C@H](C)CC1` [Example 203, N—((S)-2-((6-(3,5-dimethylisoxazol-4-yl)pyridin-3-yl)amino)-1-((1r,4S)-4-methylcyclohexyl)-2-oxoethyl)-3-ethylisoxazole-4-carboxamide]: the IC50 under setting [1] was 79.4 nM.

In the case of `CCc1nocc1C(=O)N[C@H](C(=O)Nc1cnc(-c2c(C)cnn2C)c(F)c1)[C@H]1CC[C@H](C)CC1` [Example 180, N—((S)-2-((6-(1,4-dimethyl-1H-pyrazol-5-yl)-5-fluoropyridin-3-yl)amino)-1-((1r,4S)-4-methylcyclohexyl)-2-oxoethyl)-3-ethylisoxazole-4-carboxamide], under setting [1], the IC50 is 158 nM.

`CCn1nccc1C(=O)N[C@H](C(=O)Nc1ccc(-c2c(C)noc2C)nc1)C1CCCCCC1` [Example 169, (S)—N-(1-cycloheptyl-2-((6-(3,5-dimethylisoxazol-4-yl)pyridin-3-yl)amino)-2-oxoethyl)-1-ethyl-1H-pyrazole-5-carboxamide]: the IC50 under setting [1] was 100 nM.

In the case of `Cn1nccc1C(=O)N[C@H](C(=O)Nc1ccc(-c2c[nH]c(=O)c3[nH]cnc23)c(F)c1)C(c1ccccc1)c1ccccc1` [Example 69, (S)—N-(1-((3-fluoro-4-(4-oxo-4,5-dihydro-3H-imidazo[4,5-c]pyridin-7-yl)phenyl)amino)-1-oxo-3,3-diphenylpropan-2-yl)-1-methyl-1H-pyrazole-5-carboxamide], the IC50 under setting [2] is 79.4 nM.

`Cc1c(-c2ccc(NC(=O)[C@@H](NC(=O)c3ccnn3C)C(c3ccccc3)c3ccccc3)cc2C(F)(F)F)ccc(=O)n1C` [Example 54, (S)—N-(1-((4-(1,2-dimethyl-6-oxo-1,6-dihydropyridin-3-yl)-3-(trifluoromethyl)phenyl)amino)-1-oxo-3,3-diphenylpropan-2-yl)-1-methyl-1H-pyrazole-5-carboxamide]: under setting [2], the IC50 is 316 nM.

Regarding `Cn1nccc1C(=O)N[C@H](C(=O)Nc1ccc(-c2c(C3CC3)nnn2C)cn1)C1CCCCCC1` [Example 173, (S)—N-(1-cycloheptyl-2-((5-(4-cyclopropyl-1-methyl-1H-1,2,3-triazol-5-yl)pyridin-2-yl)amino)-2-oxoethyl)-1-methyl-1H-pyrazole-5-carboxamide], under setting [1], the IC50 is 158 nM.

Take `Cn1nccc1C(=O)N[C@H](C(=O)Nc1ccc(-c2ccc(=O)n(C)c2)cc1)C(c1ccccc1)c1ccccc1` [Example 51, (S)-1-methyl-N-(1-((4-(1-methyl-6-oxo-1,6-dihydropyridin-3-yl)phenyl)amino)-1-oxo-3,3-diphenylpropan-2-yl)-1H-pyrazole-5-carboxamide]: under setting [2], the IC50 is 25.1 nM.

With `Cc1noc(C)c1-c1ccc(NC(=O)[C@@H](NC(=O)c2ccnn2C)C2CCCCCC2)cn1` [Example 172, (S)—N-(1-cycloheptyl-2-((6-(3,5-dimethylisoxazol-4-yl)pyridin-3-yl)amino)-2-oxoethyl)-1-methyl-1H-pyrazole-5-carboxamide], under setting [1], the IC50 was 200 nM.

Consider `Cc1noc(C)c1-c1ccc(NC(=O)[C@@H](NC(=O)c2ccnn2C)C2CCCCCC2)nc1` [Example 115, (S)—N-(1-Cycloheptyl-2-((5-(3,5-dimethylisoxazol-4-yl)pyridin-2-yl)amino)-2-oxoethyl)-1-methyl-1H-pyrazole-5-carboxamide], for which, under setting [1], the IC50 was 126 nM.

Take `CCn1nncc1C(=O)N[C@H](C(=O)Nc1ccc(-c2c(C)cnn2C)cn1)[C@H]1CC[C@H](C)CC1` [Example 168, N—((S)-2-((5-(1,4-dimethyl-1H-pyrazol-5-yl)pyridin-2-yl)amino)-1-((1r,4S)-4-methylcyclohexyl)-2-oxoethyl)-1-ethyl-1H-1,2,3-triazole-5-carboxamide]: under setting [1], the IC50 is 158 nM.

Consider `Cc1n[nH]c(C)c1-c1ccc(NC(=O)[C@@H](NC(=O)c2cnnn2C)C2CCCCCC2)cn1` [Example 209, (S)—N-(1-cycloheptyl-2-((6-(3,5-dimethyl-1H-pyrazol-4-yl)pyridin-3-yl)amino)-2-oxoethyl)-1-methyl-1H-1,2,3-triazole-5-carboxamide], for which, under setting [1], the IC50 is 794 nM.

As for `COc1cnccc1-c1ccc(NC(=O)[C@@H](NC(=O)c2ccnn2C)C(c2ccccc2)c2ccccc2)cc1F` [Example 24, (S)—N-(1-((3-fluoro-4-(3-methoxypyridin-4-yl)phenyl)amino)-1-oxo-3,3-diphenylpropan-2-yl)-1-methyl-1H-pyrazole-5-carboxamide], under setting [2], the IC50 was 31.6 nM.

`COc1ncc(-c2ccc(NC(=O)[C@@H](NC(=O)c3ccnn3C)C(c3ccccc3)c3ccccc3)cc2)c2cc[nH]c12` [Example 76, (S)—N-(1-((4-(7-methoxy-1H-pyrrolo[2,3-c]pyridin-4-yl)phenyl)amino)-1-oxo-3,3-diphenylpropan-2-yl)-1-methyl-1H-pyrazole-5-carboxamide]: the IC50 under setting [2] is 631 nM.

In the case of `COc1cc(NC(=O)[C@@H](NC(=O)c2ccnn2C)C(c2ccccc2)c2ccccc2)ccc1-c1ccncc1CO` [Example 53, (S)—N-(1-((4-(3-(hydroxymethyl)pyridin-4-yl)-3-methoxyphenyl)amino)-1-oxo-3,3-diphenylpropan-2-yl)-1-methyl-1H-pyrazole-5-carboxamide], the IC50 under setting [2] was 251 nM.

Turning to `Cc1cnn(C)c1-c1ccc(NC(=O)[C@@H](NC(=O)c2ccnn2C)C2CCCCCC2)nc1` [Example 132, (S)—N-(1-Cycloheptyl-2-((5-(1,4-dimethyl-1H-pyrazol-5-yl)pyridin-2-yl)amino)-2-oxoethyl)-1-methyl-1H-pyrazole-5-carboxamide], the IC50 under setting [1] was 79.4 nM.

For the compound `CCn1nccc1C(=O)N[C@H](C(=O)Nc1ccc(-c2c(C)noc2C)c(F)c1)C(c1ccccc1)c1ccccc1` [Example 61, (S)—N-(1-((4-(3,5-dimethylisoxazol-4-yl)-3-fluorophenyl)amino)-1-oxo-3,3-diphenylpropan-2-yl)-1-ethyl-1H-pyrazole-5-carboxamide], under setting [2], the IC50 was 39.8 nM.

Consider `Cc1cncc(C)c1-c1ccc(NC(=O)[C@@H](NC(=O)c2ccnn2C)[C@H]2CC[C@H](C)CC2)nc1` [Example 90, N—((S)-2-((3′,5′-Dimethyl-[3,4′-bipyridin]-6-yl)amino)-1-((1r,4S)-4-methylcyclohexyl)-2-oxoethyl)-1-methyl-1H-pyrazole-5-carboxamide], for which, under setting [2], the IC50 is 63.1 nM.
